Assays:
Assay type in all cases: cell-based
[1] = system: AXL phosphorylation in MDA-MB-231 cells; assay: Western Blot, AXL kinase phosphorylation of MDA-MB-231 cells; conditions: FIG. 1
Procedure: Effect of quinolone derivatives on AXL kinase phosphorylation of MDA-MB-231 and 4T1 cells A conventional Western Blot was used, which includes four steps: sample preparation; electrophoretic separation; membrane transfer of proteins; and immunological hybridization and developing (protein detection).
1. MDA-MB-231 cells were seeded into a 6-well plate at an appropriate density, cultured for 24 hours until the cell confluency reached about 80%, drug-containing medium at corresponding concentration was added respectively, and co-cultured for 2-24 hours.
2. The medium was discarded at a predetermined time point, the well plate was washed twice with precooled PBS at 4° C. and the residual liquid was washed away.
3. 1×SDS sample buffer (CST recommended, 6-well plate, 300 μL) was added, scraping all the cells in the dish with a cell scraper, and transferring same to a 1.5 mL of EP tube (operated on ice).
4. The cell lysate was sonicated for 10-15 seconds to cut off DNA, so as to reduce sample viscosity.
5. Boil the sample for 5 min.
6. 12000 g of samples were centrifuged at 4° C. for 5 min, and the supernatant was taken and stored at −20° C. or −80° C. for western blot analysis.
1. Electrophoretic separation: 15-20 μL of 8%-12% SDS-PAGE polyacrylamide gel was loaded, with 90 v electrophoresis for the upper gel, and 120 v electrophoresis for the lower gel.
2. Assembly and transferring of the sandwich: submerging the polyacrylamide gel in transfer buffer and equilibrated for 10 min. According to the size of polyacrylamide gel, PVDF membrane (Mili pore) and 6 pieces of filter paper were cut out and placed in transfer buffer and equilibrated for 10 min. The PVDF membrane needs to be immersed in methanol for 3-5 seconds. Placed in such sequence as sponge→3 layers of filter paper→gel→membrane→3 layers of filter paper→sponge. Ensure there are no bubbles.
3. Membrane transferring: the transfer tank was placed in an ice bath, and the sandwich was added. Ensure the gel facing the negative electrode, and the PVDF facing the positive electrode. 1× membrane transferring buffer was added and placed under the constant pressure, subjecting same to membrane transferring at 110 V for 0.5 to 2 h depending on the molecular weight of the protein to be tested.
4. Blocking: the PVDF membrane was removed after the membrane transferring, blocked with blocking solution (1×TBS, containing 0.5% Tween-20 and 5% skim milk powder), and shaked slowly for 2 h on a horizontal shaker.
5. Incubation of the primary antibody: after blocking, diluting the primary antibody (antibody AXL, phosphor-AXL, AKT, phosphor-AKT, GAPDH, etc.) at 1: 200-1:1000. The PVDF membrane and the antibody were incubated overnight in a wet box at 4° C. to allow sufficient binding of the antibody to the protein of interest.
6. […]

MDA-MB-231 cells [2] = assay: Immunofluorescence, EMT marker proteins in TGF-β1-induced MDA-MB-231 cells; conditions: TGF-β1 (10 ng/ml); for expression of E-cadherin / expression of N-cadherin: 96 hours; for phosphorylation level of AXL: FIGS. 3 and 4
Procedure: Immunofluorescence experiments were used to determine the effect of the compounds on EMT marker proteins.
MDA-MB-231 cells were seeded onto a glass slide pre-placed in a 6-well plate, and then treated with compounds to be tested at different concentrations (0.04, 0.2, 1.5 μM) with or without TGF-β1 (10 ng/ml) for 96 hours. At room temperature, the cells were fixed with a 4% formaldehyde solution for 15 minutes, treated with 0.5% Triton X-100 for 10 minutes, and blocked with PBS solution containing 3% goat serum albumin for one hour, and then incubated with antibodies against E-cadherin and N-cadherin (1:1000; Abeam, ab10983) for 1.5 hours at room temperature. The cells were then washed with PBST and co-incubated with Alexa Fluor 555 labeled rabbit secondary antibody (4413; CST, USA) or Alexa Fluor 488 labeled murine secondary antibody (4408; CST, USA) for one hour at room temperature in the dark. Cell nuclei were stained with ProLong Gold antifade reagent (P36931; Invitrogen, USA) for 5 minutes, glass slides were covered with pieces of glass, and samples were observed using a laser scanning confocal microscope (Zeiss 710; Germany).

MDA-MB-231 cells [3] = assay: Wound-healing and transwell invasion and migration of MDA-MB-231 cells; conditions: FIGS. 5 and 6
Procedure: Compounds were tested for their effects on EMT using routine transwell and wound-healing experiments.
MDA-MB-231 breast cancer cells were inoculated into a 6-well plate in 5×10^5 cells/well, and when the cells occupied 100% of the medium, the medium was removed, and a scratch of a constant width was drawn in the middle of the monolayer cell with a 200-μL pipette tip. The cells were washed three times with phosphate buffered saline (PBS) to remove cell debris, followed by addition of 2% FBS with or without TGF-β1 (10 ng/mL) and substances to be tested at different concentrations, and cultured in RPMI-1640 for 24 hours. At the time points of 0 and 24 hour, three scratch areas were selected, and examined and photographed using a phase contrast inverted fluorescence microscopy (CKX41; Olympus) and Image-ProPlus image capture software. The degree of scratch closure was calculated using Adobe Photoshop 7.0.1 software (Adobe Systems Inc., San Jose, Calif.). The final result is determined by averaging three results. […]
1. Cells were trypsinized and centrifuged, then resuspended and counted, and resuspended with serum-free medium, diluted to 5×10^4 to 5×10^5 cells/mL; AXL inhibitor solution at different concentrations were prepared with the cell suspension, and added into the upper chamber, and 800 μL of a medium containing 10% FBS was added into the lower chamber. […]

SMILES	phosphorylation of AXL [1]	phosphorylation of downstream signaling protein AKT [1]	expression of E-cadherin (MDA-MB-231 cells [2])	expression of N-cadherin (MDA-MB-231 cells [2])	phosphorylation level of AXL (MDA-MB-231 cells [2])	invasion and migration of MDA-MB-231 cells induced by TGF-β1 (MDA-MB-231 cells [3])
CCc1ccc2c(c1)c(=O)c(C(=O)Nc1ccc(Oc3ncnc4[nH]cc(-c5ccccc5)c34)c(F)c1)c(C)n2C [TL4800075, 6-ethyl-N-(3-fluoro-4-((5-phenyl-7H-pyrrolo[2,3-d]pyrimidin-4-yl)oxy)phenyl)-1,2-dimethyl-4-oxo-1,4-dihydroquinoline-3-carboxamide]	significantly inhibit	significantly inhibit	significantly upregulate	down-regulate	inhibit the phosphorylation level of AXL in a dose-dependent manner	inhibit the invasion and migration of breast cancer MDA-MB-231 cells induced by TGF-β1 in a dose-dependent manner
CCc1ccc2c(c1)c(=O)c(C(=O)Nc1ccc(Oc3ncnc4cc(OC)c(OC)cc34)c(F)c1)c(C)n2C [TL4800191, N-(4-(6,7-dimethoxyquinazolin-4-yloxy)-3-fluorophenyl)-6-ethyl-1,2-dimethyl-4-oxo-1,4-dihydroquinoline-3-carboxamide]	significantly inhibit	significantly inhibit	significantly upregulate	down-regulate	inhibit the phosphorylation level of AXL in a dose-dependent manner	inhibit the invasion and migration of breast cancer MDA-MB-231 cells induced by TGF-β1 in a dose-dependent manner

Source: patent publication US10683278B2 (JINAN UNIVERSITY, priority 2015, dated 2020)
